Measurements taken from patent US11926613B2, “Kinase inhibitors for the treatment of central and peripheral nervous system disorders” (UNIVERSITY OF MIAMI, priority 2017, dated 2024).

Columns and labels:
[1] = system: neurons from hippocampi of E18 rat embryos; assay: Neurite growth length (% NTL) in cultured E18 rat hippocampal neurons, 9-point dose response, 48 hours; type: cell-based; details: Rattus norvegicus, Neuron, 48 h; for activity at 0.078 µM: 78 nM; for activity at 0.156 µM: 156 nM; for activity at 0.312 µM: 312 nM; for activity at 0.625 µM: 625 nM
Description: PRE-COATING CULTURE PLATES: On the day before the experiment, 96-well plates were pre-coated by plating 50 μl of Poly-D-lysine solution (PDL, 0.5 mg/mL) in each well. The next morning, the plates were washed four or five times with HBSS or PBS (150 μl/rinse), then left in buffer until cell plating
PREPARING THE CELLS: A timed pregnant rat carrying E18 embryos was euthanized using an IACUC approved method. In a laminar flow hood, the embryos were removed and placed in a petri dish containing Hank's Balanced Salt Solution (HBSS) with 20 mM HEPES, pH 7.3. Pup brains were dissected (see Meberg et al., 2003) and hippocampi were collected in 15 mL a conical tube containing Hibernate E with SM1 (2% v/v).
Dissociation media was prepared by combining 4.5 mL of Hibernate E (without SM1) with 0.5 mL of trypsin and 100 μl of DNAse solution. The medium over the hippocampi was carefully removed and replaced with dissociation solution, then incubated at 37° C. for 15-20 minutes, occasionally swirling the tube.
Using flame polished cotton plugged Pasteur pipettes, the dissociation media was removed, and then 5 mL of Hibernate E containing SM1 were added. The tube was swirled to thoroughly wash the tissue. The tissue was allowed to settle to the bottom of the tube, and the rinse solution was carefully removed. This step was repeated 5 times to dilute out trypsin and DNAse and remove any debris from lysed cells.
The final rinse media was removed from the tube and 1 pipette-full (1-2 mL) of Hibernate E with SM1 was added. Using the flame-polished Pasteur pipette (pre-wetted with rinse media), the tube was triturated until all cells had dissociated and no visible chunks of tissue remained. Fewer than ten triturations were typically performed. The volume was adjusted to 8-12 mL using Hibernate E containing SM1, the well was mixed and cell concentration was determined.
PLATING: The cells were diluted in culture media (NbActiv4 Cell-culture media) to a final concentration of 10,000 cells/mL. The HBSS was aspirated from PDL coated plates, and 150 μL of cell solution was loaded in the middle 48 wells at 1500 cells per well. Water was loaded in the outer wells to decrease evaporation from edge wells. Cells were allowed to adhere for 2 hours in tissue culture incubator prior to treatment.
TREATMENT: Compounds were diluted to various concentrations to provide 9 dose response concentrations of 20 μM, 10 μM, 5, μM, 2.5 μM, 1.25 μM, 0.625 μM, 0.3125 μM, 0.15625 μM, and 0.078125 μM. The plates were cultured for 48 hours, exposed to the compound at the various dose response concentrations.
FIXING THE CULTURES: The culture medium was removed from the plates and immediately replaced with 100-200 μl of warm (37° C.) 4% paraformaldehyde (PFA) solution in phosphate-buffered saline (PBS). The cells were fixed for 15-20 minutes at room temperature, and then rinsed with PBS (200 μl/well×3).
STAINING AND IMAGING: The PBS was removed and replaced with 100 μl of blocking/permeabilization buffer (PBS, 0.2% fish gelatin, 0.03% Triton X-100, 0.02% NaN3), then incubated overnight at 4° C. To this was added 100 μl of primary antibody solution (mouse anti-Beta III tubulin in blocking buffer) and incubate overnight at 4° C. The wells were rinsed with PBS (200 μl×3), which was then removed and replaced with 100 μl of secondary antibody solution (Goat anti-mouse Alexa 488, 10 μg/ml Hoechst 33342, 0.2% fish gelatin, 0.02% azide, in PBS). The plate was shaken gently on a rotating shaker for 2 hours, then rinsed with PBS (200 μl×5).
The plate was imaged using a Cellomics ArrayScan VTI in 2 different channels for nuclear staining (Hoechst) and cell body/neurite staining (βIII-tubulin). Typically, nine fields per well were imaged with a 5× objective and automatically traced by the Neuronal Profiling Bioapplication. To get reproducible results, at least 200-300 valid neurons were measured per condition. […]

[2] = system: Primary Neurons; assay: HCS neurite outgrowth assay (High Content Screening with Primary Neurons); type: cell-based; details: Primary neuron

Row | Structure (SMILES) | activity at 0.078 µM [1] | activity at 0.156 µM [1] | activity at 0.312 µM [1] | activity at 0.625 µM [1] | activity at 1.25 µM [1] | activity at 2.5 µM [1] | activity at 5 µM [1] | activity at 10 µM [1] | activity at 20 µM [1] | EC50 [2]
1 | COc1ccc(O)c(C(=O)c2ccc(C(=O)O[C@@H]3CCNC[C@H]3NC(=O)c3ccncc3)cc2)c1F [Example A31, (3R,4R)-3-(pyridine-4-amido)piperidin-4-yl 4-(2-fluoro-6-hydroxy-3-methoxybenzoyl)benzoate] | 122% | 120% | 118% | 115% | 136% | 140% | 151% | 142% | 137% | 1150 nM
2 | O=C(Nc1ccccc1NC(=O)c1ccc(C(=O)c2ccccc2)cc1)c1ccncc1 [Example A6, N-[2-(4-benzoylbenzamido)phenyl]pyridine-4-carboxamide] | 94.7% | 106% | 83% | 95.4% | 94.1% | 92.9% | 105% | 107% | 121% | 1670 nM
3 | COc1ccc(O)c(Cc2ccc(C(=O)N[C@@H]3CNC[C@H]3NC(=O)c3ccnc(N)n3)cc2)c1F [Example A45, 2-amino-N-[(3R,4R)-4-{4-[(2-fluoro-6-hydroxy-3-methoxyphenyl)methyl]benzamido}pyrrolidin-3-yl]pyrimidine-4-carboxamide] | 96.5% | 90.2% | 83.7% | 87% | 84.8% | 93.3% | 89.1% | 97.2% | 111% | > 20000 nM
4 | COc1ccc(C(=O)c2ccc(C(=O)N[C@@H]3CNC[C@H]3NC(=O)c3ccncc3)cc2)c(O)c1 [Example A83, N-[(3R,4R)-4-[4-(2-hydroxy-4-methoxybenzoyl)benzamido]pyrrolidin-3-yl]pyridine-4-carboxamide] | 106% | 105% | 110% | 118% | 124% | 127% | 127% | 123% | 117% | 486 nM
5 | COc1ccc(OC)c(C(=O)c2ccc(C(=O)N[C@@H]3CCC[C@H]3NC(=O)c3ccncc3)cc2)c1F [Example A17, N-[(1R,2R)-2-[4-(2-fluoro-3,6-dimethoxybenzoyl)benzamido]cyclopentyl] pyridine-4-carboxamide] | 99.7% | 100% | 104% | 99.8% | 103% | 113% | 112% | 121% | 119% | 1830 nM
6 | COc1ccc(O)c(C(=O)c2ccc(C(=O)N[C@@H]3CNC[C@H]3NC(=O)c3ccc4[nH]ncc4c3)cc2)c1F [Example A42, N-[(3R,4R)-4-[4-(2-fluoro-6-hydroxy-3-methoxybenzoyl)benzamido]pyrrolidin-3-yl]-1H-indazole-5-carboxamide] | 115% | 110% | 126% | 118% | 169% | 255% | 403% | 431% | 369% | 2450 nM
7 | Cc1cccc(C(=O)c2ccc(C(=O)N[C@@H]3CNC[C@H]3NC(=O)c3ccncc3)cc2)c1O [Example A75, N-[(3R,4R)-4-[4-(2-hydroxy-3-methylbenzoyl)benzamido]pyrrolidin-3-yl]pyridine-4-carboxamide] | 97.1% | 93.7% | 105% | 106% | 116% | 119% | 119% | 146% | 140% | 6560 nM
